Results taken from ChEMBL document CHEMBL4414662, “Cytotoxic Kendomycins Containing the Carbacylic Ansa Scaffold from the Marine-Derived Verrucosispora sp. SCSIO 07399” (J Nat Prod, 2019).
Values after ≈ are worked out from the molar mass of the structure shown.

Tests used:
HepG2 = experiment: Antiproliferative activity against human HepG2 cells assessed as reduction in cell viability by MTT assay; type: functional, cell-based
HeLa = experiment: Antiproliferative activity against human HeLa cells assessed as reduction in cell viability by MTT assay; type: functional, cell-based
RKO = experiment: Antiproliferative activity against human RKO cells assessed as reduction in cell viability by MTT assay; type: functional, cell-based
[1] = Cytotoxicity against HUVEC12 assessed as reduction in cell viability by MTT assay; settings: Homo sapiens
MCF7 = experiment: Antiproliferative activity against human MCF7 cells assessed as reduction in cell viability by MTT assay; type: functional, cell-based
MGC-803 = experiment: Antiproliferative activity against human MGC803 cells assessed as reduction in cell viability by MTT assay; type: functional, cell-based
L02 = experiment: Cytotoxicity against human L02 cells assessed as reduction in cell viability by MTT assay; type: cell-based
Bacillus thuringiensis = experiment: Antibacterial activity against Bacillus thuringiensis BT01 by CLSI based two-fold serial dilution method; type: functional
Staphylococcus aureus [2] = experiment: Antibacterial activity against methicillin-resistant Staphylococcus aureus shhs-A1 by CLSI based two-fold serial dilution method; type: functional
Staphylococcus aureus [3] = experiment: Antibacterial activity against Staphylococcus aureus 745524 by CLSI based two-fold serial dilution method; type: functional
Staphylococcus aureus [4] = experiment: Antibacterial activity against Staphylococcus aureus ATCC […] by CLSI based two-fold serial dilution method; type: functional; settings: ATCC 29213
A549 = experiment: Antiproliferative activity against human A549 cells assessed as reduction in cell viability by MTT assay; type: functional, cell-based
Bacillus subtilis = experiment: Antibacterial activity against Bacillus subtilis BS01 by CLSI based two-fold serial dilution method; type: functional
Enterococcus faecalis = experiment: Antimicrobial activity against Enterococcus faecalis ATCC 29212 by CLSI based two-fold serial dilution method; type: functional

## COc1cccc2c1C(=O)c1c(O)c3c(c(O)c1C2=O)C[C@@](O)(C(=O)CO)C[C@@H]3O[C@H]1C[C@H](N)[C@H](O)[C@H](C)O1 [DOXORUBICIN]
HepG2
  IC50: 0.7 µM
HeLa
  IC50: 0.8 µM
RKO
  IC50: 1.5 µM
[1]
  IC50: 7.2 µM
MCF7
  IC50: 0.8 µM
MGC-803
  IC50: 3.6 µM
L02
  IC50: 8.6 µM

## CC(=O)N[C@@H](CSC1=C2C3=CC(=O)C(O)=C2[C@@H]2O[C@H](CC[C@H](C)/C=C(\C)C[C@@H](C)C[C@H](C)[C@]1(O)O3)[C@H](C)[C@H](O)[C@H]2C)C(=O)O
Bacillus thuringiensis
  MIC: 2 µg/mL (≈ 3.16 µM)
Staphylococcus aureus [2]
  MIC: 4 µg/mL (≈ 6.31 µM)
Staphylococcus aureus [3]
  MIC: 2 µg/mL (≈ 3.16 µM)
Staphylococcus aureus [4]
  MIC: 1 µg/mL (≈ 1.58 µM)
A549
  IC50: 26 µM
HepG2
  IC50: 44 µM
HeLa
  IC50: 7.1 µM
Bacillus subtilis
  MIC: 8 µg/mL (≈ 12.6 µM)
RKO
  IC50: 34 µM
[1]
  IC50: > 50 µM
MCF7
  IC50: 13 µM
MGC-803
  IC50: 7.1 µM
L02
  IC50: 6.2 µM
Enterococcus faecalis
  MIC: 4 µg/mL (≈ 6.31 µM)

## NC[C@H]1O[C@H](O[C@H]2[C@H](O)[C@@H](O[C@H]3O[C@H](CO)[C@@H](O)[C@H](N)[C@H]3O)[C@H](N)C[C@@H]2N)[C@H](O)[C@@H](O)[C@@H]1O [KANAMYCIN]
Bacillus thuringiensis
  MIC: 8 µg/mL (≈ 16.5 µM)
Staphylococcus aureus [2]
  MIC: 64 µg/mL (≈ 132 µM)
Staphylococcus aureus [3]
  MIC: 64 µg/mL (≈ 132 µM)
Staphylococcus aureus [4]
  MIC: 16 µg/mL (≈ 33 µM)
Bacillus subtilis
  MIC: 8 µg/mL (≈ 16.5 µM)
Enterococcus faecalis
  MIC: 32 µg/mL (≈ 66 µM)

## C/C1=C\[C@@H](C)CC[C@H]2O[C@@H](C3=C(O)C(=O)C=C4O[C@](O)(C=C43)[C@@H](C)C[C@H](C)C1)[C@H](C)[C@@H](O)[C@H]2C
Bacillus thuringiensis
  MIC: 1 µg/mL (≈ 2.12 µM)
Staphylococcus aureus [2]
  MIC: 2 µg/mL (≈ 4.23 µM)
Staphylococcus aureus [3]
  MIC: 1 µg/mL (≈ 2.12 µM)
Staphylococcus aureus [4]
  MIC: 0.5 µg/mL (≈ 1.06 µM)
A549
  IC50: 8 µM
HepG2
  IC50: 22 µM
HeLa
  IC50: 4.9 µM
Bacillus subtilis
  MIC: 2 µg/mL (≈ 4.23 µM)
RKO
  IC50: 6.1 µM
[1]
  IC50: 6 µM
MCF7
  IC50: 5.1 µM
MGC-803
  IC50: 3.3 µM
L02
  IC50: 7.4 µM
Enterococcus faecalis
  MIC: 2 µg/mL (≈ 4.23 µM)

## CSC1=C2C3=CC(=O)C(O)=C2[C@@H]2O[C@H](CC[C@H](C)/C=C(\C)C[C@@H](C)C[C@H](C)[C@]1(O)O3)[C@H](C)[C@H](O)[C@H]2C
Bacillus thuringiensis
  MIC: 0.5 µg/mL (≈ 0.964 µM)
Staphylococcus aureus [2]
  MIC: 1 µg/mL (≈ 1.93 µM)
Staphylococcus aureus [3]
  MIC: 1 µg/mL (≈ 1.93 µM)
Staphylococcus aureus [4]
  MIC: 0.5 µg/mL (≈ 0.964 µM)
A549
  IC50: 6.8 µM
HepG2
  IC50: 6.7 µM
HeLa
  IC50: 5.4 µM
Bacillus subtilis
  MIC: 2 µg/mL (≈ 3.86 µM)
RKO
  IC50: 3.8 µM
[1]
  IC50: 6 µM
MCF7
  IC50: 2.3 µM
MGC-803
  IC50: 8.9 µM
L02
  IC50: 2.2 µM
Enterococcus faecalis
  MIC: 0.5 µg/mL (≈ 0.964 µM)

## CC1(C)S[C@@H]2[C@H](NC(=O)[C@H](N)c3ccccc3)C(=O)N2[C@H]1C(=O)O [AMPICILLIN]
Bacillus thuringiensis
  MIC: 32 µg/mL (≈ 91.6 µM)
Staphylococcus aureus [2]
  MIC: 1 µg/mL (≈ 2.86 µM)
Staphylococcus aureus [4]
  MIC: 2 µg/mL (≈ 5.72 µM)
Bacillus subtilis
  MIC: 0.25 µg/mL (≈ 0.715 µM)
Enterococcus faecalis
  MIC: 2 µg/mL (≈ 5.72 µM)

## CN[C@H](CC(C)C)C(=O)N[C@H]1C(=O)N[C@@H](CC(N)=O)C(=O)N[C@H]2C(=O)N[C@H]3C(=O)N[C@H](C(=O)N[C@H](C(=O)O)c4cc(O)cc(O)c4-c4cc3ccc4O)[C@H](O)c3ccc(c(Cl)c3)Oc3cc2cc(c3O[C@@H]2O[C@H](CO)[C@@H](O)[C@H](O)[C@H]2O[C@H]2C[C@](C)(N)[C@H](O)[C@H](C)O2)Oc2ccc(cc2Cl)[C@H]1O [VANCOMYCIN]
Bacillus thuringiensis
  MIC: 2 µg/mL (≈ 1.38 µM)
Bacillus subtilis
  MIC: 1 µg/mL (≈ 0.69 µM)
